{
  "source": "patent US20130273649A1",
  "about": "“Culture medium for pluripotent stem cells” (UNIVERSITY OF SOUTHERN CALIFORNIA, priority 2012, published 2013)",
  "key": {"[1]": {"test_system": "β-catenin", "test": "Western blot of nuclear β-catenin in mouse EpiSCs", "type": "cell-based", "settings": "3 μM CHIR 12 h", "protocol": "(A) Western blot analysis of cytoplasmic, nuclear and total β-catenin levels in CD1 mouse EpiSCs overexpressing Flag-tagged Axin1 or Axin2. Cells were either untreated or treated with 3 μM CHIR for 12 h. (B) Immunostaining of CD1 mouse EpiSCs overexpressing Flag-tagged Axin2 (C) Co-IP of Flag or β-catenin in CD1 mouse EpiSCs overexpressing empty vector or Flag-tagged Axin2. Cells were treated with 3 μM CHIR for 12 h (D) Immunostaining of ΔNβ-catenin-ERT2-overexpressing CD1 mouse EpiSCs before and after treatment with 1 μM 4-OHT. (E). Western blot analysis of cytoplasmic and nuclear ΔNβ-catenin-ERT2 levels after treatment with 1 μM 4-OHT for 24 h. (F). Phase contrast image of ΔNβ-catenin-ERT2-EpiSCs after 25 passages in basal medium only. (G) qRT-PCR analysis of Oct4, Nanog and Fgf5 mRNA levels in ΔNβ-catenin-ERT2-EpiSCs maintained in basal medium or basal medium plus FGF2/activin for 11 passages. Data represent mean±s.d. of three biological replicates. (H) Phase contrast image of ΔNβ-catenin-ERT2-EpiSCs after treatment with 1 μM 4-OHT for 24 h. […]\nNext, we investigated how β-catenin mediates EpiSC self-renewal. […] To determine whether nuclear translocation of β-catenin is affected by Axin, we analyzed β-catenin protein levels in whole-cell, cytoplasmic and nuclear fractions before and after CHIR treatment. […] In Axin2-EpiSCs, Axin2 expression was mainly detected in the cytoplasm (FIG. 6B). […]"}, "[2]": {"test_system": "Axin2", "test": "Western blot of Axin2 in human ESCs", "type": "cell-based", "settings": "human ESCs treated 24 h"}},
  "data": [
    {"smiles": "Cc1c[nH]c(-c2cnc(NCCNc3ccc(C#N)cn3)nc2-c2ccc(Cl)cc2Cl)n1", "note": "[CHIR99021, 6-((2-((4-(2,4-Dichlorophenyl)-5-(4-methyl-1H-imidazol-2-yl)pyrimidin-2-yl)amino)ethyl)amino)nicotinonitrile]", "values": [
      {"measurement": "nuclear β-catenin protein level", "setting": "[1]; Axin2-EpiSCs", "result": "barely detectable"},
      {"measurement": "nuclear β-catenin protein level", "setting": "[1]; vector-EpiSCs and Axin1-EpiSCs", "result": "dramatically increased"},
      {"measurement": "amount of Axin2 protein", "setting": "[2]", "result": "induced the expression of Axin2"}
    ]}
  ]
}
